“Also recorded” adds a separate entry of the source. No end group written: not given here.
Tests used:
Type in all cases: cell-based
mouse IL-9 signal = assay: Western blot of phosphorylation downstream of IL-9 in PT-18 cells; conditions: 1 nM mouse IL-9, excess dose of BNZ132-1, 15 min
Experimental: (§1) PT-18 cells32 were fasted of IL-3 for 12 h prior to stimulation. Cells were stimulated with 1 nM mouse IL-4 or mouse IL-9 in the presence or absence of excess dose of BNZ132-1 ([…]) for 15 min and then cellular proteins were extracted. Phosphorylation of the indicated proteins was detected using phosphor-specific antibodies (Cell signaling), followed by ECL. IL-4 is the only γc-cytokine that induces the phosphorylation of STAT6. Note that only IL-4, but not IL-9, induced the tyrosine-phosphorylation of STAT6. […] Lanes: 1. no stimulation, 2. IL-4, 3. IL-4+BNZ132-1, 4. IL-9, 5. IL-9+BNZ132-1

mouse IL-3 = mouse IL-3 (Mus musculus, UniProt P01586); assay: PT-18β proliferation assay (3H-thymidine), non-γc cytokine IL-3; conditions: 1 nM mouse IL-3, 15 μM BNZ132-1
IL-2, -15 and -9 = assay: Inhibition of IL-2, -15 and -9 in human NK92 cell line and ex vivo human T cells
Experimental: (§2) Human peripheral blood mononuclear cells were purified by the Ficoll-paque gradient centrifugation (GE-Healthcare) and stimulated by PHA (5 μg ml^−1, Sigma) for 48 h, then expanded with IL-2 (0.5 nM, Peprotech) for 48h, and then depleted of non-T cells by the Pan-T cell negative enrichment Ab cocktails (Miltenyi). The purified T cells were then fasted of IL-2 overnight prior to the proliferation assay by the tetrazolium dye method. Four hundred thousand cells (in 200 μl culture) were incubated with the cytokines and BNZ132-1 at the indicated concentrations for 24 h, and 20 μl WST1 reagent (Clontech) was added to each well. After 12 h incubation, OD450 was measured. The assay was performed in triplicate. […] NK 92 cells were cultured in human IL-2. Cells were washed to withdraw IL-2 for overnight and two hundred thousand cells (in 200 μl volume) were incubated with the indicated concentrations of the cytokine and BNZ132-1 for 24 h before 20 μl WST-1 reagent (Clontech) was added to each well to measure proliferative response. Absorbance at 450 nm was read at 6 h after the addition of the WST-1 dye. The assay was performed in triplicate. The assay was performed in triplicate and the figure represents a typical result out of 5 different HAM-TSP patients.
Next, the biochemical aspects of the BNZ132-1 inhibition of target cytokines were investigated. […]

mouse GM-CSF = mouse GM-CSF (Mus musculus, UniProt P01587); assay: PT-18β proliferation assay (3H-thymidine), non-γc cytokine GM-CSF; conditions: 1 nM mouse GM-CSF, 15 μM BNZ132-1
Sequence of mouse GM-CSF (P01587 18-141): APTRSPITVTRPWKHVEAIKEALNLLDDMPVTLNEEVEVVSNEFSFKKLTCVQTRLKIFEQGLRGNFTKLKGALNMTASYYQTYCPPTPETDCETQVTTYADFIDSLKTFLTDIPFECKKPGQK

[1] = tested on: IL-2/IL-15-induced proliferation of ex vivo human T-lymphocytes
Experimental: FIG. 7A, and FIG. 7B present effective inhibition of a combined function of target γc-cytokines by BNZ132-1. […] Human Peripheral T cells were prepared as described in the methodology section. Four hundred thousand cells (in 200 μl culture) were incubated with the cytokines and BNZ132-1 at the indicated concentrations for 24 h, and cellular proliferation was determined by the […] using the WST-1 reagent (Clontech). The Y-axis represents the OD450 values. The p values; 1 nM cytokine combination—No inhibition vs. anti-IL-2; 0.33, No inhibition vs. anti-IL-15; 0.13, No inhibition vs. anti IL-2+IL-15; 0.003. No inhibition vs. BNZ132-1; 0.021. 0.1 nM cytokine combination—No inhibition vs. anti-IL-2; 0.046, No inhibition vs. anti-IL-15; 0.057, No inhibition vs. anti IL-2+IL-15; 0.001, No inhibition vs. anti IL-2+15; 0.001, No inhibition vs.BNZ132-1; 0.001. The assay was performed in triplicate. […] Peripheral blood mononuclear cells were purified from the blood of a HAM-TSP patient and set up for a spontaneous proliferation assay as previously described36. The cellular proliferation was measured by the thymidine incorporation assay. The Y-axis represents the cpm values. Doses are on the X-axis; BNZ132-1, 3 and 0.3 μM. […] After 12 h incubation, OD450 was measured. […] Absorbance at 450 nm was read at 6 h after the addition of the WST-1 dye. […]

human IL-15 = assay: NK92 cell proliferation assay (WST-1), IL-15; conditions: 24 h
Experimental: as §2
FIG. 8B, and FIG. 8C show the results of NK92 cell proliferation assay. NK92 cells responded to IL-2 and IL-15. […]

mouse IL-4 signal = assay: Western blot of phosphorylation downstream of IL-4 in PT-18 cells; conditions: 1 nM mouse IL-4, excess dose of BNZ132-1, 15 min
Experimental: as §1

IKEFLQRFIHIVQSIINTS [BNZ132-1]
inhibition of IL-9 signal (phosphorylation, STAT5) (mouse IL-9 signal): comprehensively inhibited
inhibition of IL-3-induced proliferation of PT-18β cells (mouse IL-3): did not inhibit; also recorded: no inhibition; also recorded: no inhibition of non-γc cytokines
Ki (IL-2, -15 and -9; approximate, from the inhibitory concentrations (Cheng-Prusoff), read-out: binding affinity of BNZ132-1 to target cells): 10 to 60 nM
IC50 (IL-2, -15 and -9; human NK92 cell line and ex vivo human T cells, read-out: concentration at which IL-2, -15 and -9 are inhibited): 50 to 150 nM
inhibition of GM-CSF-induced proliferation of PT-18β cells (mouse GM-CSF): did not inhibit; also recorded: no inhibition; also recorded: no inhibition of non-γc cytokines
IC50 [1]: 150 nM
inhibition of IL-15-induced proliferation of NK92 cells (human IL-15): dose-dependent manner; also recorded: dose-dependent inhibition
inhibition of IL-4 signal transduction (phosphorylation, STAT6) (mouse IL-4 signal): does not interfere; also recorded: not inhibited
